Experimental data published in patent US8088808B2, “Substituted N-phenyl-bipyrrolidine carboxamides and therapeutic use thereof” (Sanofi, priority 2007, dated 2012).
Counter-ions that a name gives are not always drawn.

Tests used:
[1] = molecular target: rhesus (Macaca Mulatta) H3 receptor (Macaca mulatta, UniProt Q865E1); test: Rhesus H3 radioligand binding assay ([3H]-Methylhistamine displacement, WGA SPA beads); set-up: species or system rhesus monkey (Macaca Mulatta); conditions: Table 2; procedure of Example 42
Experimental: (Genbank #AY231164). Stably transfected cultures were amplified in tissue culture flasks by standard tissue culture methods and induced to express rhesus H3 by exposure to 500 ng/ml tetracycline (Cellgro) for 24 hours. After induction, cells were dissociated from flasks utilizing Cell Stripper (Cellgro). Cells were centrifuged (1K×g, 5 min) and pellet frozen in an ethanol-dry ice bath to disrupt cell membranes. Frozen cell pellet was re-suspended in 5 mM HEPES (pH 7.4, Invitrogen) at 10 ml/1000 cm2 of harvested cells. The cell suspension was drawn through an 18 gauge needle (2-3×) followed by a 23 gauge needle (2-3×) to further disrupt cell membranes. The cell suspension was centrifuged (40K×g, 30 min). Cell membrane pellet was re-suspended in 5 mM HEPES (pH 7.4, Invitrogen) at a final protein concentration of 10 mg/ml. Rhesus H3 membranes were stored under liquid nitrogen prior to use in [3H]-Methylhistamine and GTPγS radioligand binding assays.
Rhesus H3 radioligand binding assay was performed using rhesus H3 receptor membranes (prepared as described above), [3H]-Methylhistamine (Perkin Elmer) and WGA SPA beads (wheat germ agglutinin scintillation proximity assay) beads (Amersham). The assay was performed in 96-well Opti-Plates (Packard). Each reaction contained 50 μl rhesus H3 membranes (20-30 μg total protein), 50 μl WGA SPA beads (0.1 μg) and 50 μl of 83 Ci/mmol [^3H]-Methylhistamine (final concentration 2 nM) and 50 μl of tested compound. The compounds of this invention and/or vehicle were diluted with binding buffer from 10 mM DMSO stocks. Assay plates were sealed with TopSeal (Perkin Elmer) and mixed on shaker (25° C., 1 hour). Assay plates were read on TopCount scintillation counter (Packard). Results were analyzed by Hill transformation and Ki values were determined by Cheng-Prusoff equation.

[2] = molecular target: MCH receptor (Homo sapiens, UniProt Q99705); test: MCH receptor [125J]-ligand binding filtration assay; conditions: 10 μM test compound; percent inhibition of ligand binding
Experimental: The activity of the compounds of this invention at the MCH receptor site, if any was measured by the procedures as set forth below. • Test Compounds The compounds of this invention were stored in a 96-well microtiter plates (1 μL, 10 mM, 100% DMSO). Each of the test sample was diluted with 249 μL of 100% DMSO (dilution 1:250). […] Blank: Assay buffer containing 0.4% DMSO were transferred to the dilution microtiter plates for blanks • Assay Procedure: The filter plates with […] of 0.5% PEI-solution/well were incubated for 2 hours at room temperature. PEI was removed by vacuum filtration just before pipetting (Univac Polyfiltronic/Whatman). The solution of the compound as prepared above (50 μL), or MCH ([…]) or Puffer/DMSO (positive control) were added to 96-well round bottom microtiter plate. Then 50 μl of [^125J]-ligand solution was added followed by 100 μl of membrane suspension. The plates were closed with the lids, and incubated for 60 min. at 25° C. The samples were transferred to GF/B filter plate. The reaction mixture was removed by vacuum filtration, washed 4× with 300 μL ice-cold washing buffer and the washing solution was removed by vacuum filtration. The rubber layer at the bottom of the plate was then removed and the filters were dried over night at room temperature. 25 μL of scintillation cocktail was added and the plates were sealed and, plate frames were added and incubated for 1 hour at room temperature. The radioactivity was then measured, settings ^125J standard, 30 sec./well.

Sequence of rhesus (Macaca Mulatta) H3 receptor (Q865E1 1-445): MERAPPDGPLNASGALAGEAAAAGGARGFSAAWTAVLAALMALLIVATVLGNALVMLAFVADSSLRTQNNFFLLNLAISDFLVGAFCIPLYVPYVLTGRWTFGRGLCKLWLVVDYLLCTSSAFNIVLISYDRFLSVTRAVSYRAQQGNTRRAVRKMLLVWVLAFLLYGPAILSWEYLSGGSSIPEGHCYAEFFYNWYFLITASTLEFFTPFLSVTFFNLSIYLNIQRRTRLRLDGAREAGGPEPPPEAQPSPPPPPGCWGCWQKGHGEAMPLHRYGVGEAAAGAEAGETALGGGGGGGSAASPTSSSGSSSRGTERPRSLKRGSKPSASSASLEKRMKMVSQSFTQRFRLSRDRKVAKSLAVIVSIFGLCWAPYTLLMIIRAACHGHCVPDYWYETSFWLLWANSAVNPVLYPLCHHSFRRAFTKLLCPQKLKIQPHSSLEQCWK
Sequence of MCH receptor (Q99705 whole entry): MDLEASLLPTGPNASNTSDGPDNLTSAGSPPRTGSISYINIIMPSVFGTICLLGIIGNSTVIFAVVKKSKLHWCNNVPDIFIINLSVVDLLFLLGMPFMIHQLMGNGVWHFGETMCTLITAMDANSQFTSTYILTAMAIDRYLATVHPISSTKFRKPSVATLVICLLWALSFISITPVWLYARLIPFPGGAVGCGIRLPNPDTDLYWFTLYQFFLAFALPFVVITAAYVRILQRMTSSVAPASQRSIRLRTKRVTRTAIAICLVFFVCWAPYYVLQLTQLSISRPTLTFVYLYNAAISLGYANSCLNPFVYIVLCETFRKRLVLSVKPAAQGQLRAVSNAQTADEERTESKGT

Compound	Ki [1] [nM]	inhibition at 10 µM [2] [%]
Cc1cc(N2CC[C@H](N3CCC[C@@H]3C)C2)ccc1NC(=O)C1CCCCC1 [Example 2, Cyclohexanecarboxylic acid [2-methyl-4-(2S-methyl-[1,3′S]bipyrrolidinyl-1′-yl)-phenyl]-amide trifluoro-acetate]	0.4	-2.1
Cc1cc(N2CC[C@H](N3CCC[C@@H]3C)C2)ccc1NC(=O)C1CC2CCC1C2 (stereo partly drawn) [Example 3, Bicyclo[2.2.1]heptane-2-carboxylic acid [2-methyl-4-(2S-methyl-[1,3′S]bipyrrolidinyl-1′-yl)-phenyl]-amide trifluoro acetate]	0.6	-0.8
Cc1cc(C(=O)Nc2ccc(N3CC[C@H](N4CCC[C@@H]4C)C3)cc2C)on1 [Example 5, 3-Methyl-isoxazole-5-carboxylic acid [2-methyl-4-(2S-methyl-[1,3′ S]bipyrrolidinyl-1′-yl)-phenyl]-amide trifluoro-acetate]	1.1	3.1
Cc1cc(NC(=O)c2c(C)noc2C)ccc1N1CCC(N2CCCC2C)C1 (stereo not drawn) [Example 7, 3,5-Dimethyl-isoxazole-4-carboxylic acid [3-methyl-4-(2-methyl-[1,3′]bipyrrolidinyl-1′-yl)-phenyl]-amide trifluoro-acetate]	3.2	5
Cc1cc(N2CCC(N3CCCC3C)C2)ccc1NC(=O)CC1CCCC1 (stereo not drawn) [Example 8, 2-Cyclopentyl-N-[2-methyl-4-(2-methyl-[1,3′]bipyrrolidinyl-1′-yl)-phenyl]-acetamide trifluoro-acetate]	8.4	1.4
Cc1cc(N2CC[C@H](N3CCC[C@@H]3C)C2)ccc1NC(=O)C1C(C)(C)C1(C)C [Example 16, 2,2,3,3-Tetramethyl-cyclopropanecarboxylic acid [2-methyl-4-(2(S)-methyl-[1,3′(S)]bipyrrolidinyl-1′-yl)-phenyl]-amide trifluoroacetate]	0.8	5.8
Cc1cc(N2CCC(N3CCCC3C)C2)ccc1NC(=O)C1C(C)(C)C1(C)C (stereo not drawn) [Example 17, 2,2,3,3-Tetramethyl-cyclopropanecarboxylic acid [2-methyl-4-(2-methyl-[1,3′]bipyrrolidinyl-1′-yl)-phenyl]-amide trifluoroacetate]	37.3	11.5
Cc1cc(N2CCC(N3CCCC3C)C2)ccc1NC(=O)c1c(C)noc1C (stereo not drawn) [Example 18, 3,5-Dimethyl-isoxazole-4-carboxylic acid [2-methyl-4-(2-methyl-[1,3′]bipyrrolidinyl-1′-yl)-phenyl]-amide trifluoroacetate]	2.6	-2
Cc1cc(N2CC[C@H](N3CCC[C@@H]3C)C2)ccc1NC(=O)c1ccco1 [Example 19, Furan-2-carboxylic acid [2-methyl-4-(2(S)-methyl-[1,3′(S)]bipyrrolidinyl-1′-yl)-phenyl]-amide trifluoroacetate]	3.9	6
Cc1cc(N2CCC(N3CCCC3C)C2)ccc1NC(=O)C1CCOCC1 (stereo not drawn) [Example 24, Tetrahydro-pyran-4-carboxylic acid [2-methyl-4-(2-methyl[1,3′]bipyrrolidinyl-1′-yl)-phenyl]-amide trifluoroacetate]	6.8	8.6
CC1CCCN1C1CCN(c2ccc(NC(=O)C3C(C)(C)C3(C)C)cc2)C1 (stereo not drawn) [Example 25, 2,2,3,3-Tetramethyl-cyclopropanecarboxylic acid [4-(2-methyl-[1,3′]bipyrrolidinyl-1′-yl)-phenyl]-amide trifluoroacetate]	144	15

Continued by falling Ki [1], values first:

Ki [1] [nM]	inhibition at 10 µM [2] [%]	Compound
130	11.2	Cc1cc(NC(=O)C2C[C@@H]3CC[C@H]2C3)ccc1N1CCC(N2CCCC2C)C1 (stereo partly drawn) [Example 23, (1S,4R)-Bicyclo[2.2.1]heptane-2-carboxylic acid [3-methyl-4-(2-methyl-[1,3′]bipyrrolidinyl-1′-yl)-phenyl]-amide trifluoroacetate]
30.9	24.3	Cc1cc(C(=O)Nc2ccc(N3CCC(N4CCCC4C)C3)cc2C)n[nH]1 (stereo not drawn) [Example 20, 5-Methyl-1H-pyrazole-3-carboxylic acid [2-methyl-4-(2-methyl-[1,3′]bipyrrolidinyl-1′-yl)-phenyl]-amide trifluoroacetate]
22.1	4.8	CC1CCCN1C1CCN(c2ccc(NC(=O)c3cn[nH]c3)cc2)C1 (stereo not drawn) [Example 13, 1H-Pyrazole-4-carboxylic acid [4-(2-methyl-[1,3′]bipyrrolidinyl-1′-yl)-phenyl]-amide trifluoro-acetate]
19.9	-2.8	Cc1cc(N2CCC(N3CCCC3C)C2)ccc1NC(=O)C1C[C@@H]2CC[C@H]1C2 (stereo partly drawn) [Example 12, (1S,4R)-Bicyclo[2.2.1]heptane-2-carboxylic acid [2-methyl-4-(2-methyl-[1,3′]bipyrrolidinyl-1′-yl)-phenyl]-amide trifluoro-acetate]
17.3	5.6	Cc1cc(C(=O)Nc2ccc(N3CC[C@H](N4CCC[C@@H]4C)C3)c(C)c2)n[nH]1 (stereo in doubt) [Example 22, 5-Methyl-1H-pyrazole-3-carboxylic acid [3-methyl-4-(2-methyl-[1,3′]bipyrrolidinyl-1′-yl)-phenyl]-amide trifluoroacetate]
17	2.7	Cc1cc(NC(=O)C2CCOCC2)ccc1N1CCC(N2CCCC2C)C1 (stereo not drawn) [Example 11, Tetrahydro-pyran-4-carboxylic acid [3-methyl-4-(2-methyl[1,3′]bipyrrolidinyl-1′-yl)-phenyl]-amide trifluoro-acetate]
10.8	10.3	Cc1cc(N2CC[C@H](N3CCC[C@@H]3C)C2)ccc1NC(=O)c1cc(C)n(C)n1 [Example 15, 1,5-Dimethyl-1H-pyrazole-3-carboxylic acid [2-methyl-4-(2(2S)-methyl-[1,3′(3′S)]bipyrrolidinyl-1′-yl)-phenyl]-amide hydrochloride]
9.6	4	Cc1cc(N2CCC(N3CCCC3C)C2)ccc1NC(=O)C1CC1 (stereo not drawn) [Example 10, Cyclopropane carboxylic acid [2-methyl-4-(2-methyl-[1,3′]bipyrrolidinyl-1′-yl)-phenyl]-amide trifluoro-acetate]
8.7	-2.8	CC1CCCN1C1CCN(c2ccc(NC(=O)C3CCOCC3)cc2)C1 (stereo not drawn) [Example 9, Tetrahydro-pyran-4-carboxylic acid [4-(2-methyl-[1,3′]bipyrrolidinyl-1′-yl)-phenyl]-amide trifluoro-acetate]
4.7	28.3	Cc1cc(C(=O)Nc2ccc(N3CC[C@H](N4CCC[C@@H]4C)C3)cc2C)n[nH]1 [Example 14, 5-Methyl-1H-pyrazole-3-carboxylic acid [2-methyl-4-(2(2S)-methyl-[1,3′(3′S)]bipyrrolidinyl-1′-yl)-phenyl]-amide]
1	-1.6	Cc1cc(N2CC[C@H](N3CCC[C@@H]3C)C2)ccc1NC(=O)C1CCOCC1 [Example 4, Tetrahydro-pyran-4-carboxylic acid [2-methyl-4-(2(2S)-methyl-[1,3′(3′S)]bipyrrolidinyl-1′-yl)-phenyl]-amide]
0.9	1.9	Cc1cc(N2CC[C@H](N3CCC[C@@H]3C)C2)ccc1NC(=O)CC1CCCC1 [Example 21, 2-Cyclopentyl-N-[2-methyl-4-(2(S)-methyl-[1,3′(S)]bipyrrolidinyl-1′-yl)-phenyl]-acetamide trifluoroacetate]
0.4	0.7	Cc1cc(N2CC[C@H](N3CCC[C@@H]3C)C2)ccc1NC(=O)c1c(C)noc1C [Example 1, 3,5-Dimethyl-isoxazole-4-carboxylic acid [2-methyl-4-(2(2S)-methyl-[1,3′(3′S)]bipyrrolidinyl-1′-yl)-phenyl]-amide]
